ChEMBL document CHEMBL1201862, “PubChem BioAssay data set” (2004)
Where a name gives a salt, the structure may show the parent alone. The source made the active and inactive calls.

Legend:
[1] = inhibitors of firefly luciferase expression or activity, dose response, H4 neuroglioma cells, luminescence (AID 1990); type: functional, cell-based
[2] = target: T1, RNA-binding protein pos-1 (Caenorhabditis elegans, UniProt G5EF15); test: inhibitors of POS-1/mex-3 RNA binding, dose response, biochemical, fluorescence polarization (AID 1964);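 note: purified POS-1 fused to maltose binding protein made in E. coli; potency of compounds blocking POS-1 binding to fluorescent RNA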
T1 sequence (G5EF15 whole entry): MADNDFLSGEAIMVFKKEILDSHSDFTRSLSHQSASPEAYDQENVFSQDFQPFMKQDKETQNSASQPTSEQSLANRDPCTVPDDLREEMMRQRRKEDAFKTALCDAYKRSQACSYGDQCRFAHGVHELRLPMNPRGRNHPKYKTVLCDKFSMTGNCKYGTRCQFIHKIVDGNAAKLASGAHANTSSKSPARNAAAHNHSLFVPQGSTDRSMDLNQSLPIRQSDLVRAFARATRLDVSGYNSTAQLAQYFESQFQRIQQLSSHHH

[3] = Luminescence Cell-Based Dose Response HTS to Identify Inhibitors of 5'UTR Stem-Loop Driven Prion Protein mRNA Translation in H4 Neuroglioblastoma Cells. [Related pubchem assays: 1827 (Project Summary), 1813 (Primary HTS)]; type: functional
[4] = target: T2, Zinc finger protein mex-5 (Caenorhabditis elegans, UniProt Q9XUB2); test: MEX-5/TCR-2 RNA interaction inhibitors, dose response, biochemical, C. elegans, fluorescence polarization (AID 1960)
T2 sequence (Q9XUB2 whole entry): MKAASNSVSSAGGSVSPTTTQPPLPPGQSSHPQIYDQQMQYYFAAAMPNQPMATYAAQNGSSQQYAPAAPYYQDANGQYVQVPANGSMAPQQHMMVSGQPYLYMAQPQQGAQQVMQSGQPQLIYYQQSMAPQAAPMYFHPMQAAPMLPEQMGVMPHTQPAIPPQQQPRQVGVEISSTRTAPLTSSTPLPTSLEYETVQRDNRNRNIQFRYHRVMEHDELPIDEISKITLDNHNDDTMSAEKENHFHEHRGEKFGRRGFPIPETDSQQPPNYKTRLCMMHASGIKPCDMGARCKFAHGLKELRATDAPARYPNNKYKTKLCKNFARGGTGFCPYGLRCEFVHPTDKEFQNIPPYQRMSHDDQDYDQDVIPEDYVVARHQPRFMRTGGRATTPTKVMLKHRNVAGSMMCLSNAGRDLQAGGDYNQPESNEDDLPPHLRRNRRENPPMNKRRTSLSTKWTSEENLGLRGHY

[5] = inhibitors of SNCA 5'UTR-driven reporter translation, confirmation, H4 neuroglioma cells, luminescence (AID 1988); type: functional, cell-based
[6] = inhibitors of intracellular T. cruzi replication, confirmation, NIH3T3 host cells, beta-gal luminescence (AID 2044); type: functional, cell-based;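 note: intracellular parasites grown in NIH/3T3 mouse fibroblasts as host cells; luminescent beta-galactosidase reporter signal from transgenic T. cruzi replicating inside host cells; inhibitors lower the luminescence signal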
[7] = cytotoxicity toward NIH3T3 fibroblasts, dose response, counter-screen, cell-based, ATP luminescence, mouse fibroblasts (AID 2010); type: functional;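 note: cells exposed to compound for about 90 hours before reading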
[8] = target: T3, Short transient receptor potential channel 4 (Mus musculus, UniProt Q9QUQ5); test: mouse TRPC4 channel inhibitors, dose response, cell-based, HEK293 TRPC4/mu-opioid, Fluo-4 calcium (AID 434942); type: functional;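 note: potency of inhibitors blocking the TRPC4 calcium response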
T3 sequence (Q9QUQ5 whole entry): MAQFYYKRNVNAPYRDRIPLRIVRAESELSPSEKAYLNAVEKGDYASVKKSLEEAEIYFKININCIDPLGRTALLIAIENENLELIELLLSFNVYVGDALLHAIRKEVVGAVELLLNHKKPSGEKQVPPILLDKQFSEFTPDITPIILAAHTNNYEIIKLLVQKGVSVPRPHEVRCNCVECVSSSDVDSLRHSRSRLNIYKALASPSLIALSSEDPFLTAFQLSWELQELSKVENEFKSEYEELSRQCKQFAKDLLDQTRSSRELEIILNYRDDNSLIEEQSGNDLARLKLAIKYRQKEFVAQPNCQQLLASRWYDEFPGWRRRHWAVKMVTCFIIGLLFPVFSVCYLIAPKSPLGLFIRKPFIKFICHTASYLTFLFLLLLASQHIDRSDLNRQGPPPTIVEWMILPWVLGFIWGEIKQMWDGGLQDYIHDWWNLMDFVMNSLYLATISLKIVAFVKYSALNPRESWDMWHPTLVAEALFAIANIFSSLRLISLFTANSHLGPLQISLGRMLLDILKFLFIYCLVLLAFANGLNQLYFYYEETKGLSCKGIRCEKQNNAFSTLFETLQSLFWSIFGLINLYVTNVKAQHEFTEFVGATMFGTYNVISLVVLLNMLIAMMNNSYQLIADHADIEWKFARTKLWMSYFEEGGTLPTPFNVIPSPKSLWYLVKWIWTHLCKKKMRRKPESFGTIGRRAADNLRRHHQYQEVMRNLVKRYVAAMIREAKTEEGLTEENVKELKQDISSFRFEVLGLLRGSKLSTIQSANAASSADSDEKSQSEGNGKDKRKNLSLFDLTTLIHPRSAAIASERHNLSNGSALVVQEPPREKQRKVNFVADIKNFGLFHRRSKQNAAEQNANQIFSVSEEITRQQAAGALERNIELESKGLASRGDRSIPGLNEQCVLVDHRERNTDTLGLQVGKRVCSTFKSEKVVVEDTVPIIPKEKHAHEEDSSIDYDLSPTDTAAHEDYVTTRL

[9] = growth suppression of PTEN-null colon cells, dose response, cell-based, HCT116 PTEN knockout (AID 1047); type: functional;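 note: HCT116 colon tumor cells with PTEN knocked out; cells exposed to compound for 60 hours before readout; potency for loss of cell viability measured by luminescence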
[10] = growth suppression of beta-catenin-knockout colon cells, dose response, cell-based, HCT116, human colon tumor (AID 1045); type: functional;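 note: HCT116 colon tumor cells with beta catenin knocked out; cells exposed to compound for 60 hours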
cells [11] = type: functional, cell-based
cells [12] = type: functional, cell-based; remark: listed apart in the source
Fatty acid synthase = Fatty acid synthase (Homo sapiens, UniProt P49327); test: FAS thioesterase domain inhibitors, dose response, biochemical, kinetic fluorescence intensity (AID 624326); type: functional;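 note: rate of fluorescence rise from hydrolysis of a fluorogenic O-methyl fluorescein ester substrate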
INS1 = test: beta cell apoptosis inhibitors, cytokine rescue, dose response, luminescence, retest (AID 449756); type: functional, cell-based; conditions: Rattus norvegicus;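 note: cell death triggered by IL-1 beta plus TNF-alpha plus IFN-gamma mixture; protective hits raise ATP signal compared with cytokine alone wells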
P388/ADR = test: cells; type: functional; conditions: Mus musculus
SN12K1 = test: cells; type: functional; conditions: Homo sapiens
P388 = test: cells; type: functional; conditions: Mus musculus
[13] = Luminescence Cell-Based Dose Confirmation HTS to Identify Activators of 5'UTR Stem-Loop Driven Alpha-Synuclein mRNA Translation in H4 Neuroglioblastoma Cells. [Related pubchem assays: 1829 (Project Summary), 1814 (Primary HTS)]; type: functional
[14] = Luminescence Cell-Based Dose Response HTS to Identify Activators of Luciferase Translation or Activity in H4 […] Cells. [Related pubchem assays: 1829 (Project Summary), 1814 (Primary HTS)]; type: functional
H4 = test: Luminescence Cell-Based Dose Response HTS to Identify Activators of 5'UTR Stem-Loop Driven Prion Protein mRNA Translation in H4 Neuroglioblastoma Cells. [Related pubchem assays: 1829 (Project Summary), 1814 (Primary HTS)]; type: functional; conditions: Homo sapiens
[15] = P. falciparum Dd2 growth inhibitors, dose response, SYBR Green, cherry-picked samples (AID 1159567); type: functional, cell-based

Fatty acid synthase, sequence (P49327 whole entry, the tested form may be a part): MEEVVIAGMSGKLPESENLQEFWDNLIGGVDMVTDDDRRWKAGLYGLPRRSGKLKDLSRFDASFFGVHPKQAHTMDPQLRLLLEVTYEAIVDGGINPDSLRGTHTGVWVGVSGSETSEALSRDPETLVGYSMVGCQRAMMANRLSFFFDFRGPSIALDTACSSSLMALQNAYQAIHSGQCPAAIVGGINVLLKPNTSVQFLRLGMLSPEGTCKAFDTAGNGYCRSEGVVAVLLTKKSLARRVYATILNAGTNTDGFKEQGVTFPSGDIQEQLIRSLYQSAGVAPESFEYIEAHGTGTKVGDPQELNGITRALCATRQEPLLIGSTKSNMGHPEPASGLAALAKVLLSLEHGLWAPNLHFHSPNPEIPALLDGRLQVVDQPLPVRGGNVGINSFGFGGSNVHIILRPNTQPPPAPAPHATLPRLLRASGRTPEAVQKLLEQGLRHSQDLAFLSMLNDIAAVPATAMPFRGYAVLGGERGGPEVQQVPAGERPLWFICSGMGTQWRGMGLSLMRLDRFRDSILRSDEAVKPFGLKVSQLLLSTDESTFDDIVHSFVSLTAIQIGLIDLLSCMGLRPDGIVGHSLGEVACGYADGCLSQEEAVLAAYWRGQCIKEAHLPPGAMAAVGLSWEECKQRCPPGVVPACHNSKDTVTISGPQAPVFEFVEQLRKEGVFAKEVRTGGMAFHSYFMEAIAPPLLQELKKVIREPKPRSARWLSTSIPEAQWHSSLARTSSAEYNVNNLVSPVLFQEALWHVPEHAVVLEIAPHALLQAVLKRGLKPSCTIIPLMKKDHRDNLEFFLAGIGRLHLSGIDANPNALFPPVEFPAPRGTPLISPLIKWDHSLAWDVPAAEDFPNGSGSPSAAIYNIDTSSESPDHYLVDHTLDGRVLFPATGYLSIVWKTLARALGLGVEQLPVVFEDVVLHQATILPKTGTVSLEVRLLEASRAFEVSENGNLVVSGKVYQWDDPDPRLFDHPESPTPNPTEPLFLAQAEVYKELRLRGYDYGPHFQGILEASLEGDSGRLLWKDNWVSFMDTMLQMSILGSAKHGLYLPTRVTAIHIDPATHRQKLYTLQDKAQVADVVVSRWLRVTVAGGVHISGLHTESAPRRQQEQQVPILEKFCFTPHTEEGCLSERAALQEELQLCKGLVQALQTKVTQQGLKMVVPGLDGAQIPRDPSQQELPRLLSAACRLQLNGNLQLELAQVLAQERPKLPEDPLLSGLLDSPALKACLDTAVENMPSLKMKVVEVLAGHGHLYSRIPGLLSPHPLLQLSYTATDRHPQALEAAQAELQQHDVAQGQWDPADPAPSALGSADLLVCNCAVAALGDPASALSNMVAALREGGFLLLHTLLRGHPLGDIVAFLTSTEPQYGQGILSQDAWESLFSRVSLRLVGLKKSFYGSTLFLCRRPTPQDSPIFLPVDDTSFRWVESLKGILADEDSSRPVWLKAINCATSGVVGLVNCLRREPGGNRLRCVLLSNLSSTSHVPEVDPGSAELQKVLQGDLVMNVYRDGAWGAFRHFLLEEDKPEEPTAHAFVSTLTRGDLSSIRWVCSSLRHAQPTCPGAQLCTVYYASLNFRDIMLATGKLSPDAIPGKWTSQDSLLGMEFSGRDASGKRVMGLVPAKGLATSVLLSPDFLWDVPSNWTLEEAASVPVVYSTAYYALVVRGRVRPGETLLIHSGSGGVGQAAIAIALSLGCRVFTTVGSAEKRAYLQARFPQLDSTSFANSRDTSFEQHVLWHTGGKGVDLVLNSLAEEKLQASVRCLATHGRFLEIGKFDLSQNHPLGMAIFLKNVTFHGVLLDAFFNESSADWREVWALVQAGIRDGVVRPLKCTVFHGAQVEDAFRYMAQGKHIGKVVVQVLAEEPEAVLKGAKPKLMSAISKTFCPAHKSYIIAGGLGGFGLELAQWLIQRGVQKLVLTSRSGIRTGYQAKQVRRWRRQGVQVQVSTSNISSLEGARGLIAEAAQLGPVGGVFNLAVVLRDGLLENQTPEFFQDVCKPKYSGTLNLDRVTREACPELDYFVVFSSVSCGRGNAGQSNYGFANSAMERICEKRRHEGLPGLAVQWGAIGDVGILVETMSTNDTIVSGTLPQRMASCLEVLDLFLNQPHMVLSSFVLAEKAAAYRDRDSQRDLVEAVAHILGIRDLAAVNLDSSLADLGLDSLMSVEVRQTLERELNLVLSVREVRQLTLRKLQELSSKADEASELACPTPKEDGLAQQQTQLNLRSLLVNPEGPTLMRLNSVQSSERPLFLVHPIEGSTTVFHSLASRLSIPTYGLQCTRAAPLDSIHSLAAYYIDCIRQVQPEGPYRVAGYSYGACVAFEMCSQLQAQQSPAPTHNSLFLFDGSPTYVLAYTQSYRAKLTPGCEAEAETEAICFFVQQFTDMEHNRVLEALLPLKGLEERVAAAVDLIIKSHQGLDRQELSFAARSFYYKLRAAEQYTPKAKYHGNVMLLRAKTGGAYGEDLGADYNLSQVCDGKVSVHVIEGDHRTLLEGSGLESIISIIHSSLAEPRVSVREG

## N=c1c(S(=O)(=O)c2ccc(Cl)cc2)cc2c(=O)n3ccccc3nc2n1C1CCCC1
[1]
  EC50: 24.8 µM (active)
[2]
  EC50: 135 µM (active)
[3]
  EC50: > 120 µM (not active)
[4]
  EC50: 148 µM (inconclusive)
[5]
  EC50: 31.7 µM (active)
[6]
  EC50: 0.87 µM (active)
[7]
  EC50: 11.4 µM (active)

## CCOC(=O)c1c(NC(=O)C2CCCCC2C(=O)O)sc2c1CCCCC2 (centres undefined)
[8]
  EC50: 5.96 µM (active)

## Cc1cc(C)cc(C(=O)NC(=S)Nc2ccc(-c3cc4ccccc4oc3=O)cc2)c1
[9]
  EC50: 11.7 µM (active)
[10]
  EC50: 12.4 µM (active)

## CC(C)(C)c1ccc(N2C(=O)CC(C/C=C/c3ccccc3)C2=O)cc1 (centres undefined)
Cells [11]
  EC50: > 350 µM (not active)
Cells [12]
  EC50: > 350 µM (not active)

## COC(=O)c1cc(C(=O)NC(C)C2CC3CCC2C3)cc([N+](=O)[O-])c1 (centres undefined)
Fatty acid synthase
  IC50: 11.5 µM (active)

## Fc1ccccc1COc1ccccc1CNCc1ccncc1
[6]
  EC50: 1.45 µM (active)
[7]
  EC50: > 60 µM (not active)
[8]
  EC50: 7.5 µM (active)

## Cc1cccc2cc(CN(Cc3nnnn3Cc3ccccc3)C3CCCC3)c(O)nc12
[8]
  EC50: 0.149 µM (active)

## CC(=O)Nc1cccc(C(=O)/C=C/c2cccs2)c1
[9]
  EC50: 11.3 µM (active)
[10]
  EC50: 7.79 µM (active)

## Cc1cccc(NC(=O)Nc2cccc(Oc3c(F)c(F)c(F)c(F)c3F)c2)c1
[6]
  EC50: 3.06 µM (active)
[9]
  EC50: 17.3 µM (active)
[7]
  EC50: 7.63 µM (active)
[10]
  EC50: 24.5 µM (active)
INS1
  AC50: 4.92 µM (active)

## O=C(O)c1cn2c3c(cc(N4CCN(CCO)CC4)cc3c1=O)SCC2
P388/ADR
  GI50: > 100 µM (inactive)
SN12K1
  GI50: 40.5 µM (inactive)
P388
  GI50: 61.5 µM (inactive)

## CCCNC(=O)c1cc(-c2ccco2)on1
[13]
  EC50: 13.7 µM (active)
[14]
  EC50: 59.3 µM (active)
Cells [11]
  EC50: 10 µM (active)
H4
  EC50: 50.4 µM (active)
Cells [12]
  EC50: > 350 µM (not active)

## Cc1ccc(C)c(N2CCN(CCCNC(=O)Cn3cc4c(n3)CCCCC4)CC2)c1
[9]
  EC50: 14.5 µM (active)
[10]
  EC50: 11.8 µM (active)

## CC(OCC(O)CN(C)CCOc1ccccc1)c1ccc(Cl)cc1 (centres undefined)
[8]
  EC50: 3.76 µM (active)

## CCOC(=O)c1c(NC(=O)CCC(=O)O)sc2c1CCCCC2
Cells [11]
  EC50: > 350 µM (not active)
Cells [12]
  EC50: 24.5 µM (active)

## CCN(CCCCCN(C)C)Cc1cc2ccccc2o1
Cells [11]
  EC50: > 350 µM (not active)
Cells [12]
  EC50: > 350 µM (not active)

## COc1cc(C(=O)Nc2nc(-c3ccc(Cl)cc3)c(C)s2)ccc1OCC(=O)Nc1ccc(F)cc1
[9]
  EC50: 1.92 µM (active)
[10]
  EC50: 1.46 µM (active)

## CCOc1c(Cl)cc(CNC(C)C(O)c2ccccc2)cc1OC (centres undefined)
[8]
  EC50: 1.33 µM (active)

## O=C(Nc1ccccc1)N(C1=NCCCCS1)c1cccc2ccccc12
Cells [11]
  EC50: > 350 µM (not active)
Cells [12]
  EC50: 43.7 µM (active)

## CC(=O)Nc1cccc(NC(=O)CS(=O)(=O)c2cn(CC(=O)N3CCOCC3)c3ccccc23)c1
Cells [11]
  EC50: > 350 µM (not active)
Cells [12]
  EC50: > 350 µM (not active)

## Cc1c(CN2CCC(n3nccc3NC(=O)CCc3ccccc3)CC2)cnn1C
[8]
  EC50: 0.421 µM (active)

## O=C(NC(Cc1ccc(I)cc1)C(=O)O)c1ccc(Cl)cc1 (centres undefined)
P388/ADR
  GI50: 62.1 µM (inactive)
SN12K1
  GI50: > 100 µM (inactive)
P388
  GI50: 72.4 µM (inactive)

## CC[C@@]1(O)C[C@H](OC2CC(N(C)C)C(O)C(C)O2)c2c(cc3c(c2O)C(=O)c2c(O)ccc(O)c2C3=O)[C@H]1C(=O)OC (some centres undefined)
P388/ADR
  GI50: 0.0175 µM (active)
SN12K1
  GI50: 0.0328 µM (active)
P388
  GI50: 0.0175 µM (active)

## CCCCCCCCCCCCCCCCNCC(O)CN (centres undefined)
P388/ADR
  GI50: 2.05 µM (inactive)
SN12K1
  GI50: 1.77 µM (inactive)
P388
  GI50: 1.95 µM (inactive)

## COC(=O)C1C(O)C(C)C(O)OC1C(C)C(O)C(C)/C=C\C=C(/C)C(=O)Nc1c(C)c(OC(C)=O)c2c(c1O)C(=O)C(C)=C1OCOC(/C(C)=C/C(C)=O)=C12 (centres undefined)
P388/ADR
  GI50: 13.2 µM (inactive)
SN12K1
  GI50: 13.3 µM (inactive)
P388
  GI50: 1.93 µM (inactive)

## O=S(=O)(O)c1ccc(/N=N\c2ccc(/N=N\c3ccc(/C=C/c4ccc(/N=[N+](/[O-])c5ccc(/C=C/c6ccc(/N=N/c7ccc(/N=N\c8ccc(S(=O)(=O)O)cc8)cc7)cc6S(=O)(=O)O)c(S(=O)(=O)O)c5)cc4S(=O)(=O)O)c(S(=O)(=O)O)c3)cc2)cc1
P388/ADR
  GI50: > 100 µM (inactive)
SN12K1
  GI50: > 100 µM (inactive)
P388
  GI50: > 100 µM (inactive)

## COc1cc(O)c2c(c1)C(=O)c1cc3c(c(O)c1C2=O)C(OC1OC(C)C(O)C(O)C1OC)C(OC)C(C)(O)C3=O (centres undefined)
P388/ADR
  GI50: 7.59 µM (inactive)
SN12K1
  GI50: 2.42 µM (inactive)
P388
  GI50: 5.66 µM (inactive)

## Cc1ccc(NC(=O)COc2ccc(/C=C3/S/C(=N/c4ccccc4)N(Cc4cccnc4)C3=O)cc2)cc1
[1]
  EC50: > 120 µM (not active)
[2]
  EC50: > 300 µM (not active)
[3]
  EC50: > 120 µM (not active)
[4]
  EC50: > 300 µM (not active)
[5]
  EC50: > 120 µM (not active)

## C[C@@H]1CN([C@@H](C)CO)C(=O)c2cccc(NC(=O)C3CC3)c2O[C@H]1CN(C)Cc1ccc(-c2ccccc2)cc1
[15]
  AC50: 3.44 µM (active)

## COc1cccc(-c2cn(CC[C@@H]3CC[C@H](NS(=O)(=O)c4ccccc4Cl)[C@H](CO)O3)nn2)c1
[15]
  AC50: 7.33 µM (active)

## COc1ccccc1CN1C[C@@H](C)[C@H](OC)CN(C)C(=O)c2cc(NC(=O)Nc3ccccc3OC)ccc2OC[C@H]1C
[15]
  AC50: 4.12 µM (active)

## O=Cc1c(Cn2ccnc2)c2cc([N+](=O)[O-])ccc2n1Cc1ccccc1
P388/ADR
  GI50: 63 µM (inactive)
SN12K1
  GI50: 50.8 µM (inactive)
P388
  GI50: 40.8 µM (inactive)

## CCN(CC)CCNc1ccc(CO)c2sc3ccccc3c(=O)c12 [HYCANTHONE MESYLATE]
P388/ADR
  GI50: 7.35 µM (inactive)
SN12K1
  GI50: 7.43 µM (inactive)
P388
  GI50: 2.94 µM (inactive)
